Data on 16 compounds can be found in patent US4559338A, “Soluble quinazolino-1,4-benzodiazepin-5,13-dione derivatives” (Merck & Co., Inc., priority 1985, dated 1985).

For one data set, the system named is CCK receptor. The note with it: cited from earlier work.
The target of the next data set is T1, CCK receptor (pancreas) (Rattus norvegicus, UniProt P30551).
T1 construct: The whole pancreas of a male Sprague-Dawley rat (200-350 g); from tissue; host or cells: whole pancreas of male Sprague-Dawley rat, washed membrane homogenate
T1 sequence (P30551 1-444): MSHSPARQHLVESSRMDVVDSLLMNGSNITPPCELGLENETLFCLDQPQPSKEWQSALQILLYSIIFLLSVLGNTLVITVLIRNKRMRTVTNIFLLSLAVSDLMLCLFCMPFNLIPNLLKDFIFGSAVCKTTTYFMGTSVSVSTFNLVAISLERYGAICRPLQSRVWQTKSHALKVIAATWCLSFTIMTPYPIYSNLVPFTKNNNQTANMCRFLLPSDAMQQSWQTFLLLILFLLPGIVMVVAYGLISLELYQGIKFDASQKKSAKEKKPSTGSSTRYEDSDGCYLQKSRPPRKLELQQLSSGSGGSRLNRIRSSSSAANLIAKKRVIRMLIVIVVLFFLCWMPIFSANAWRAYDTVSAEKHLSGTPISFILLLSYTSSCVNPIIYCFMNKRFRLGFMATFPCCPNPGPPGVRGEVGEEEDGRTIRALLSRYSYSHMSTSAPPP
Description: CCK receptor binding (pancreas) method, 125I-CCK. More on the design: species or system rat (male Sprague-Dawley). The note with it: for IC50: I-CCK-8 Pancreas assay, read-out: Anti-CCK Activity IC50; for effect on the 125I-CCK receptor binding assay (in words): additional protease inhibitors in assay buffer. On the procedure: Screening of the novel compounds according to the present invention to determine biological activity and obtain an IC50 value for them, in order to identify significant CCK-antagonism, may be accomplished using an ^125 I-CCK receptor binding assay and in vitro isolated tissue preparations. These tests involve the following:
CCK receptor binding (pancreas) method
[…] (J. Biol. Chem., 254, 9349-9351, 1979). Receptor binding is performed according to Innis and Snyder (Proc. Natl. Acad. Sci., 77, 6917-6921, 1980), with the minor modification of adding the additional protease inhibitors, phenyl-methane sulfonyl fluoride and o-phenanthroline, which have no effect on the ^125 I-CCK receptor binding assay.
The whole pancreas of a male Sprague-Dawley rat (200-350 g), which has been sacrificed by decapitation, is dissected free of fat tissue and homogenized in 20 volumes of ice-cold 50 mM Tris HCl (pH 7.7 at 25° C.) with a Brinkman Polytron PT-10. The homogenates are centrifuged at 48,000 g for 10 minutes, then the resulting pellets are resuspended in Tris Buffer, centrifuged as above, and resuspended in 200 volumes of binding assay buffer (50 mM Tris HCl, pH 7.7 at 25° C., 5 mM dithiothreitol, 0.1 mM bacitracin, 1.2 mM phenylmethane sulfonyl fluoride and 0.5 mM o-phenanthroline).
For the binding assay, 25 μl of buffer (for total binding), or unlabeled CCK-8 sulfate sufficient to give a final concentration of 1 μM of CCK-8 (for nonspecific binding), or the compounds of the formula of the compounds according to the instant invention ([…]), are added to 450 μl of the membrane suspensions in microfuge tubes. All assays are run in duplicate or triplicate, and the reaction mixtures are incubated at 37° C. for 30 minutes and centrifuged in a Beckman Microfuge (4 minutes) immediately after adding 1 ml of ice-cold incubation buffer. The supernatant is aspirated and discarded, and the pellets are counted with a Beckman Gamma 5000.
The compounds of Examples 1-9 were tested for solubility in deionized water and pH 7.4 phosphate buffer and as CCK-antagonists (pancreas assay) with the following results: […]

Data set [1] can be described thus: Solubility in deionized water and pH 7.4 phosphate buffer. The class given is physicochemical.
For data set [2] the following is noted: compound of the earlier filing U.S. Pat. No. 4,530,790; cited from earlier work.
The nature of data set [3]: Solubility / stability and absorption stated in the text (no method described). The following applies: white powder. The format is physicochemical.
[4] abbreviates: deionized water, water, H2O (deionized water), read-out: Solubility.
[5] abbreviates: phosphate buffer, pH 7.4, aqueous buffer, pH 7.4 Buffer, read-out: Solubility.

As usually defined, the IC50 is the concentration at which inhibition is half-maximal. As a reminder, the Solubility is how much of the substance goes into solution per volume.

Converted amounts (≈) assume the structure as drawn. Where a name gives a salt, the structure may show the parent alone. Read-outs that look alike come from different tables or passages of the source. Where a SMILES comes first, the peptide text is derived from it. [ ]: non-standard residue; d: D form. The star is where a group is joined. sY = N[C@@H](Cc1ccc(OS(=O)(=O)O)cc1)C(=O)O; Cbz = O=C(OCc1ccccc1)*; Boc = CC(C)(C)OC(=O)*

`CSCC[C@H](N)C(=O)N[C@@H](CC(=O)O)C(=O)N[C@@H](Cc1ccccc1)C(N)=O` [Met-Asp-Phe-NH2] (H-Met-Asp-Phe-NH2): the “CCK-antagonist activity (in words)” value in the data set with CCK receptor is on record as “can function as CCK-antagonists”.
Consider `CCCC(=O)Nc1nc2c(ncn2[C@@H]2O[C@@H]3COP(=O)(O)O[C@H]3[C@H]2OC(=O)CCC)c(=O)[nH]1` [dibutyryl cyclic GMP], for which the “relative CCK antagonist potency within cyclic nucleotide class (in words)” value in the data set with CCK receptor (derivatives of cyclic nucleotides, structure-function studies) is on record as “the most potent”.
Consider `CC(C)C[C@@H]1N[C@H]2N(C1=O)c1ccccc1[C@]2(C[C@@H]1NC(=O)c2ccccc2-n2c1nc1ccccc1c2=O)OC(=O)CCC(=O)O` [Example 9, 7β-[(2,3,9,9Aα-tetrahydro-9α-(3-carboxy-1-oxopropoxy)-2-(2-methylpropyl)-3-oxo-1H-imidazo(1,2-A)indol-9-yl)methyl]quinazolino(3,2-A)-1,4-benzodiazepin-5,13-(6H,7H)-dione monohydrate], for which the IC50 on CCK receptor (pancreas) was 85 µM.
`CC(C)CC1C(=O)N2c3ccccc3C(O)(C3NC(=O)c4ccccc4-n4c3nc3ccccc3c4=O)C2N1C(=O)CCC(=O)[O-].[Na+]` (stereo not drawn) [Example 2, sodium 2,3,9,9Aα-tetrahydro-9α-hydroxy-2-(2-methylpropyl)-γ,3-dioxo-9-(5,6,7,13-tetrahydro-5,13-dioxoquinazolino(3,2-A)-1,4-benzodiazepin-7-yl)-1H-imidazo(1,2-A)indole-1-butanoate] yielded a Solubility in data set [1] (H2O (deionized water)) of 72000 µg/mL. The IC50 on CCK receptor (pancreas) is 27 µM.
For the compound `CC(C)C[C@H]1C(=O)N2c3ccccc3[C@@](O)(C[C@@H]3NC(=O)c4ccccc4-n4c3nc3ccccc3c4=O)[C@H]2N1C(=O)[C@@H](N)CCCNC(=O)OCc1ccccc1` [Example 6, 1,2,9,9Aα-tetrahydro-9α-hydroxy-1-[2-amino-5-((phenylmethoxy)carbonyl)aminopentanoyl]-2-(2-methylpropyl)-9-[(5,6,7,13-tetrahydro-5,13-dioxoquinazolino(3,2-A)-1,4-benzodiazepin-7-yl)methyl]-3H-imidazo(1,2-A)indol-3-one hydrochloride], in data set [1] (setting [4]), the Solubility was 240 µg/mL. In addition, the IC50 on CCK receptor (pancreas) was 1.8 µM.
For `CSCC[C@H](NC(=O)OC(C)(C)C)C(=O)N[C@@H](CC(=O)O)C(=O)N[C@@H](Cc1ccccc1)C(N)=O` [Boc-Met-Asp-Phe-NH2] (Boc-Met-Asp-Phe-NH2), the “CCK-antagonist activity (in words)” value in the data set with CCK receptor is on record as “can function as CCK-antagonists”.
`CC(C)C[C@@H]1N[C@H]2N(C1=O)c1ccccc1[C@@]2(O)C[C@@H]1NC(=O)c2ccccc2-n2c1nc1ccccc1c2=O` [formula (I), 7β-((2,3,9,9Aα-tetrahydro-9α-hydroxy-2-(2-methylpropyl)-3-oxo-1H-imidazo-(1,2-A)-indol-9-yl)-methyl)quinazolino(3,2-A)(1,4) benzodiazepin-5,13-(6H,7H)dione]: the “solubility in water (in words)” value in data set [2] is given as “only slightly soluble in water”. The “CCK-antagonist activity (in words)” value with CCK receptor was “has been shown to be a CCK-antagonist”.
Regarding `CC(C)C[C@H]1C(=O)N2c3ccccc3[C@@](O)(C[C@@H]3NC(=O)c4ccccc4N4C(=O)c5ccccc5NC34)[C@H]2N1CC(=O)O` (stereo partly drawn) [Example 7, 7β-[(1-carboxymethyl-2,3,9,9Aα-tetrahydro-9α-hydroxy-2-(2-methylpropyl)-3-oxo-1H-imidazo(1,2-A)indol-9-yl)methyl]-6,7,7A-8-tetrahydro-5H,13H-quinazolino(3,2-A)-1,4-benzodiazepin-5H,13-dione solvate], the Solubility in data set [1] (H2O (deionized water)) came to 10500 µg/mL. The IC50 on CCK receptor (pancreas) is 1.4 µM.
With `CSCC[C@H](NC(=O)[C@H](Cc1ccc(OS(=O)(=O)O)cc1)NC(=O)OCc1ccccc1)C(=O)NCC(=O)N[C@@H](Cc1c[nH]c2ccccc12)C(=O)N[C@@H](CCSC)C(=O)N[C@@H](CC(=O)O)C(N)=O` [Cbz-Tyr(SO3 H)-Met-Gly-Trp-Met-Asp-NH2] (Cbz-[sY]MGWMD-NH2), in the data set on CCK receptor, the “CCK-antagonist activity (in words)” value is listed as “can function as CCK-antagonists”.
Take `CC(C)C[C@H]1C(=O)N2c3ccccc3[C@@](O)(C[C@@H]3NC(=O)c4ccccc4N4C(=O)c5ccccc5NC34)[C@H]2N1C(=O)CCC(=O)O` (stereo partly drawn) [Example 4, 9-(5,6,7,7A,8,13-hexahydro-5,13-dioxoquinazolino(3,2-A)-1,4-benzodiazepin-7-yl)-2,3,9,9A-tetrahydro-9α-hydroxy-2-(2-methylpropyl)-γ,3-dioxo-1H-imidazo(1,2-A)indole-1-butanoic acid dihydrate]: the Solubility amounted to 540 µg/mL in data set [1] (H2O (deionized water), dihydrate) and 10800 µg/mL in data set [1] (setting [5]). The IC50 on CCK receptor (pancreas) stood at 6.1 µM.
On to `CC(C)C[C@H]1C(=O)N2c3ccccc3[C@@](O)(C[C@@H]3NC(=O)c4ccccc4-n4c3nc3ccccc3c4=O)[C@H]2N1C(=O)[C@@H](N)CCCCN` [Example 3, dihydrochloride], for which the “water-soluble (in words)” value in data set [3] is on record as “water-soluble”. Moreover, the IC50 at CCK receptor (pancreas) amounted to 3.8 µM.
`CC(C)C[C@H]1C(=O)N2c3ccccc3[C@@](O)(C[C@@H]3NC(=O)c4ccccc4N4C(=O)c5ccccc5NC34)[C@H]2N1CC(=O)O` (stereo partly drawn) [Example 8, 7β-[(1-carboxymethyl-2,3,9,9Aα-tetrahydro-9α-hydroxy-2-(2-methylpropyl)-3-oxo-1H-imidazo(1,2-A)indol-9-yl)methyl]-6,7,7A-8-tetrahydro-5H,13H-quinazolino(3,2-A)-1,4-benzodiazepin-5H,13-dione sodium salt solvate]: the Solubility in data set [1] (H2O (deionized water)) is above 5200 µg/mL. The IC50 on CCK receptor (pancreas) was 0.8 µM.
For `O=S(=O)(F)Cc1ccccc1` [phenyl-methane sulfonyl fluoride, reference compound], the “effect on the 125I-CCK receptor binding assay (in words)” value on CCK receptor (pancreas) is on record as “no effect”.
On to `CC(C)C[C@H]1C(=O)N2c3ccccc3[C@@](O)(C[C@@H]3NC(=O)c4ccccc4-n4c3nc3ccccc3c4=O)[C@H]2N1C(=O)CCC(=O)O` [Example 1, 2,3,9,9Aα-tetrahydro-9α-hydroxy-2-(2-methylpropyl)-γ,3-dioxo-9-(5,6,7,13-tetrahydro-5,13-dioxoquinazolino(3,2-A)-1,4-benzodiazepin-7-yl)-1H-imidazo(1,2-A)indole-1-butanoic acid], for which the Solubility in data set [1] (setting [4]) was found to be 280 µg/mL (≈ 0.44 mM); in data set [1] (setting [5]), 9500 µg/mL (≈ 14.9 mM). Besides, the IC50 on CCK receptor (pancreas) is 230 µM.
For the compound `c1cnc2c(c1)ccc1cccnc12` [o-phenanthroline, reference compound], the “effect on the 125I-CCK receptor binding assay (in words)” value at CCK receptor (pancreas) is reported as “no effect”.
In turn, `CC(C)C[C@H]1C(=O)N2c3ccccc3[C@@](O)(C[C@@H]3NC(=O)c4ccccc4N4C(=O)c5ccccc5NC34)[C@H]2N1C(=O)CCC(=O)O` (stereo partly drawn) [Example 5, sodium 9-(5,6,7,7A,8,13-hexahydro-5,13-dioxoquinazolino(3,2-A)-1,4-benzodiazepin-7-yl)2,3,9,9A-tetrahydro-9α-hydroxy-2-(2-methylpropyl)-γ,3-dioxo-1H-imidazo(1,2-A)indole-1-butanoate trihydrate] yielded a Solubility in data set [1] (H2O (deionized water), trihydrate) above 8900 µg/mL. Also, on CCK receptor (pancreas), the IC50 is 1.7 µM.
